Experimental data from patent US11149037B2, “Pyrazole MAGL inhibitors” (H. Lundbeck A/S, priority 2017, dated 2021).

Columns and labels:
[1] = molecular target: MAGL (Homo sapiens (Human), UniProt Q99685); experiment: In vitro competitive activity-based protein profiling, human proteomes (prefrontal cortex or PC3 cell membrane fractions); type: biochemical; conditions: human proteome; for inhibition at 1 µM: read-out: MAGL % inh. 1 μM (human)
Method in brief: (§1)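 Activity of MAGL and FAAH was quantified from fluorescent gel band intensities. Beforehand, inhibitors at several concentrations competed against subsequent probe labelling (FP-Rh, JW912 or HT-01) in species-matched proteomes, each step 30 min at 37° C.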

[2] = molecular target: T1, MAGL (Mus musculus (Mouse), UniProt O35678); experiment: In vitro competitive activity-based protein profiling, mouse proteomes (brain membrane fraction or cell lysates); type: biochemical; conditions: mouse proteome, read-out: MAGL % inh. 1 μM (mouse)
Method in brief: as §1

[3] = molecular target: T1, MAGL; experiment: Mouse brain proteomes from inhibitor treated mice (oral gavage, sacrificed 4 h after administration); type: in vivo; conditions: 5 mg/kg oral gavage
Procedure: (§2) Preparation of Mouse Brain Proteomes from Inhibitor Treated Mice.
(§3) Inhibitors were administered to wild-type C57B1/6J by oral gavage in a vehicle of polyethylene glycol. Each animal was sacrificed 4 h following administration and brain proteomes were prepared and analyzed according to previously established methods (See Niphakis, M. J., et al. (2011) ACS Chem. Neurosci. and Long, J. Z., et al. Nat. Chem. Biol. 5:37-44).

[4] = molecular target: FAAH (Homo sapiens (Human), UniProt O00519); experiment: In vitro competitive activity-based protein profiling, human proteomes (prefrontal cortex or PC3 cell membrane fractions); type: biochemical; conditions: human proteome; for inhibition at 1 µM: read-out: FAAH % inh. 1 μM (human)
Method in brief: as §1

[5] = molecular target: T2, FAAH (Mus musculus (Mouse), UniProt O08914); experiment: In vitro competitive activity-based protein profiling, mouse proteomes (brain membrane fraction or cell lysates); type: biochemical; conditions: mouse proteome, read-out: FAAH % inh. 1 μM (mouse)
Method in brief: as §1

[6] = molecular target: T2, FAAH; experiment: Mouse brain proteomes from inhibitor treated mice (oral gavage, sacrificed 4 h after administration); type: in vivo; conditions: 5 mg/kg oral gavage
Procedure: as §2, §3

T2 sequence (O08914 whole entry): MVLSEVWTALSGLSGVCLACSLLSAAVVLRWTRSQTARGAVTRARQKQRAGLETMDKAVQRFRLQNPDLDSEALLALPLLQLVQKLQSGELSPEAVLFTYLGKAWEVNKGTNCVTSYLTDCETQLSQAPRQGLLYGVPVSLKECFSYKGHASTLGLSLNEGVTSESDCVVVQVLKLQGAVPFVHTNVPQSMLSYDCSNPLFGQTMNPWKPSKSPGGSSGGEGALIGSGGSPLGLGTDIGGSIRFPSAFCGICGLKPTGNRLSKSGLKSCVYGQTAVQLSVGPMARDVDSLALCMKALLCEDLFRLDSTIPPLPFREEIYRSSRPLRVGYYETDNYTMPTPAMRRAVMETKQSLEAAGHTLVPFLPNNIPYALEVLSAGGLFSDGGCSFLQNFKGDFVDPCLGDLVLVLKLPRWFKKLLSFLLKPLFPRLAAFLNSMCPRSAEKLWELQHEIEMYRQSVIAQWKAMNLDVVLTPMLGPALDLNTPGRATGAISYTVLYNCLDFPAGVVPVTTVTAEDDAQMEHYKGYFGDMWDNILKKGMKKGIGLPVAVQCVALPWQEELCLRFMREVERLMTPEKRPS
T1 sequence (O35678 whole entry): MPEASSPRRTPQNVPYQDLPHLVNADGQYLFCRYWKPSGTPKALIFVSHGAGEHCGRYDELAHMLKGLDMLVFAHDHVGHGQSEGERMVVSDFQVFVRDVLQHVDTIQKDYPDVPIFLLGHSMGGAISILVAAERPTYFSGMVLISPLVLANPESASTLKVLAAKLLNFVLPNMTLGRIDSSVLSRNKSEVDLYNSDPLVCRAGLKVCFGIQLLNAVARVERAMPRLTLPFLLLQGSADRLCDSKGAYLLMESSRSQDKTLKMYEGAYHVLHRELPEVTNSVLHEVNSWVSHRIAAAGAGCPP
MAGL (Homo sapiens (Human), UniProt Q99685), sequence (Q99685 whole entry): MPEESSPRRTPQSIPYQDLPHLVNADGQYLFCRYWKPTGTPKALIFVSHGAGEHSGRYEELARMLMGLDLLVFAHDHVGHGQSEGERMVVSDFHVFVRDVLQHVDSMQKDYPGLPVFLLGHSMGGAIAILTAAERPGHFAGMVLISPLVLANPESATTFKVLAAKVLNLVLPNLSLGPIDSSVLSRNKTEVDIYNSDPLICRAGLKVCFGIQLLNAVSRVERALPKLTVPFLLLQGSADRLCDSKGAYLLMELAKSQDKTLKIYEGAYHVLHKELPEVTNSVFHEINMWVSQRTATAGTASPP
FAAH (Homo sapiens (Human), UniProt O00519), sequence (O00519 whole entry): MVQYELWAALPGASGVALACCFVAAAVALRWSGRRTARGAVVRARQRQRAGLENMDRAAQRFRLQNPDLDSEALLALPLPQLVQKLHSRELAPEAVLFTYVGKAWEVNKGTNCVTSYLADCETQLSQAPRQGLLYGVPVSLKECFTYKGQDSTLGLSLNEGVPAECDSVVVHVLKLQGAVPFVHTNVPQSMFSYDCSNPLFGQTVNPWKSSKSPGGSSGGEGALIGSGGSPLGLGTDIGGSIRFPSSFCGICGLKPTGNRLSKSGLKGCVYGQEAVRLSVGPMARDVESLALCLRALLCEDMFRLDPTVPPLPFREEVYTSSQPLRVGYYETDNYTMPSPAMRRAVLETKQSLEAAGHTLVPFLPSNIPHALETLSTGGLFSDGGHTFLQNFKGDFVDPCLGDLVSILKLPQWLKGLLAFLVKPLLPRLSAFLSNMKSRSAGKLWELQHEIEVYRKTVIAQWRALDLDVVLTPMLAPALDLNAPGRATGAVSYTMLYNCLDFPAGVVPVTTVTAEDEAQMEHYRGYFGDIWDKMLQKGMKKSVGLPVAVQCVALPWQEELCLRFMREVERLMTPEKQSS

| SMILES | inhibition at 1 µM [1] | inhibition at 1 µM [2] | inhibition at 1 µM [4] | IC50 [4] | IC50 [1] | inhibition at 1 µM [5] | MAGL % inh. 5 mg/kg (mouse) [3] | FAAH % inh. 5 mg/kg (mouse) [6] |
| --- | --- | --- | --- | --- | --- | --- | --- | --- |
| CC(C)N1CCN(c2cc(CN3CCN(C(=O)n4ccc(NS(C)(=O)=O)n4)C[C@@H]3C)ccc2Cl)CC1=O [Example 190, (S)-N-(1-(4-(4-Chloro-3-(4-isopropyl-3-oxopiperazin-1-yl)benzyl)-3-methylpiperazine-1-carbonyl)-1H-pyrazol-3-yl)methanesulfonamide] | > 75% | > 75% | – | – | – | – | D (% inhibition is greater than or equal to 0% and less than 25%) | – |
| CC(=O)Nc1ccn(C(=O)N2CCN(Cc3ccc(-c4ccccc4)cc3C)CC2)n1 [Example 131, N-(1-(4-((3-Methyl-[1,1′-biphenyl]-4-yl)methyl)piperazine-1-carbonyl)-1H-pyrazol-3-yl)acetamide] | > 75% | > 75% | > 75% | 1 to 10 µM | < 0.1 µM | > 75% | A (% inhibition is greater than or equal to 75%) | A (% inhibition is greater than or equal to 75%) |
| CC(=O)Nc1ccn(C(=O)N2CCC3(CCN(Cc4cc(F)cc(Cl)c4)C3)CC2)n1 [Example 176, N-(1-(2-(3-Chloro-5-fluorobenzyl)-2,8-diazaspiro[4.5]decane-8-carbonyl)-1H-pyrazol-3-yl)acetamide] | > 75% | > 75% | – | – | < 0.1 µM | – | A (% inhibition is greater than or equal to 75%) | – |
| C[C@H]1CN(C(=O)n2ccc(NS(C)(=O)=O)n2)CCN1Cc1ccc(C(F)(F)F)c(N2CCC(C(F)(F)F)CC2)c1 [Example 185, (S)-N-(1-(3-Methyl-4-(4-(trifluoromethyl)-3-(4-(trifluoromethyl)piperidin-1-yl)benzyl)piperazine-1-carbonyl)-1H-pyrazol-3-yl)methanesulfonamide] | > 75% | > 75% | – | – | – | – | A (% inhibition is greater than or equal to 75%) | – |
| C[C@H]1CN(C(=O)n2ccc(NS(C)(=O)=O)n2)CCN1Cc1ccc(Cl)c(N2CCC(F)(F)CC2)c1 [Example 186, (S)-N-(1-(4-(4-Chloro-3-(4,4-difluoropiperidin-1-yl)benzyl)-3-methylpiperazine-1-carbonyl)-1H-pyrazol-3-yl)methanesulfonamide] | > 75% | > 75% | – | – | – | – | A (% inhibition is greater than or equal to 75%) | – |
| C[C@@H]1CN(C(=O)n2ccc(NS(C)(=O)=O)n2)CCN1Cc1ccc(C(F)(F)F)c(N2CC3COCC3C2)c1 (stereo partly drawn) [Example 182, N-(1-((3R)-3-Methyl-4-(3-(tetrahydro-1H-furo[3,4-c]pyrrol-5(3H)-yl)-4-(trifluoromethyl)benzyl)piperazine-1-carbonyl)-1H-pyrazol-3-yl)methanesulfonamide] | > 75% | > 75% | – | – | < 0.1 µM | – | D (% inhibition is greater than or equal to 0% and less than 25%) | – |
| C[C@H]1CN(C(=O)n2ccc(NS(C)(=O)=O)n2)CCN1Cc1ccc(Cl)c(N2CCC(C(F)(F)F)CC2)c1 [Example 188, (S)-N-(1-(4-(4-Chloro-3-(4-(trifluoromethyl)piperidin-1-yl)benzyl)-3-methylpiperazine-1-carbonyl)-1H-pyrazol-3-yl)methanesulfonamide] | > 75% | > 75% | – | – | – | – | A (% inhibition is greater than or equal to 75%) | – |
| CS(=O)(=O)Nc1ccn(C(=O)N2CCN(Cc3ccc(C(F)(F)F)c(N4CC[C@@H](F)C4)c3)CC2)n1 [Example 120, (R)-N-(1-(4-(3-(3-Fluoropyrrolidin-1-yl)-4-(trifluoromethyl)benzyl)piperazine-1-carbonyl)-1H-pyrazol-3-yl)methanesulfonamide] | > 75% | > 75% | 0 to 25% | – | – | 0 to 25% | – | – |
| CC(=O)Nc1ccn(C(=O)N2CCC3(CCN(Cc4cc(C(F)(F)F)cc(C5(C(=O)O)CCCC5)c4)C3)CC2)n1 [Example 25, 1-(3-((8-(3-Acetamido-1H-pyrazole-1-carbonyl)-2,8-diazaspiro[4.5]decan-2-yl)methyl)-5-(trifluoromethyl)phenyl)cyclopentane-1-carboxylic acid] | > 75% | > 75% | 0 to 25% | 1 to 10 µM | < 0.1 µM | 0 to 25% | – | – |
| CS(=O)(=O)Nc1ccn(C(=O)N2CCC3(CCN(Cc4cc(N5CCOCC5)cc(C(F)(F)F)c4)C3)CC2)n1 [Example 59, N-(1-(2-(3-Morpholino-5-(trifluoromethyl)benzyl)-2,8-diazaspiro[4.5]decane-8-carbonyl)-1H-pyrazol-3-yl)methanesulfonamide] | > 75% | > 75% | 0 to 25% | – | – | 0 to 25% | – | – |

The next lines start with results.

| inhibition at 1 µM [1] | inhibition at 1 µM [2] | inhibition at 1 µM [4] | IC50 [4] | IC50 [1] | inhibition at 1 µM [5] | SMILES | MAGL % inh. 5 mg/kg (mouse) [3] | FAAH % inh. 5 mg/kg (mouse) [6] |
| --- | --- | --- | --- | --- | --- | --- | --- | --- |
| > 75% | > 75% | 0 to 25% | – | – | 0 to 25% | CS(=O)(=O)Nc1ccn(C(=O)N2CCN(Cc3ccc(Cl)c(N4CC[C@H](F)C4)c3)CC2)n1 [Example 117, (S)-N-(1-(4-(4-Chloro-3-(3-fluoropyrrolidin-1-yl)benzyl)piperazine-1-carbonyl)-1H-pyrazol-3-yl)methanesulfonamide] | B (% inhibition is greater than or equal to 50% and less than 75%) | D (% inhibition is greater than or equal to 0% and less than 25%) |
| > 75% | > 75% | – | – | – | – | C[C@H]1CN(C(=O)n2ccc(NS(C)(=O)=O)n2)CCN1Cc1ccc(Cl)c(N2CC[C@H](F)C2)c1 [Example 189, N-(1-((S)-4-(4-Chloro-3-((S)-3-fluoropyrrolidin-1-yl)benzyl)-3-methylpiperazine-1-carbonyl)-1H-pyrazol-3-yl)methanesulfonamide] | A (% inhibition is greater than or equal to 75%) | – |
| > 75% | > 75% | – | – | – | – | CN(Cc1ccc(Cl)cc1N1CC2COCC2C1)C1(C)CCN(C(=O)n2ccc(NS(C)(=O)=O)n2)CC1 (stereo not drawn) [Example 197, N-(1-(4-((4-Chloro-2-(tetrahydro-1H-furo[3,4-c]pyrrol-5(3H)-yl)benzyl)(methyl)amino)-4-methylpiperidine-1-carbonyl)-1H-pyrazol-3-yl)methanesulfonamide] | D (% inhibition is greater than or equal to 0% and less than 25%) | – |
| 25 to 50% | 50 to 75% | 0 to 25% | – | – | 0 to 25% | Cc1nc(Cl)ccc1CN1CCN(C(=O)n2ccc(NS(C)(=O)=O)n2)CC1 [Example 61, N-(1-(4-((6-Chloro-2-methylpyridin-3-yl)methyl)piperazine-1-carbonyl)-1H-pyrazol-3-yl)methanesulfonamide] | – | – |
| > 75% | > 75% | 0 to 25% | – | – | 0 to 25% | CC(=O)Nc1ccn(C(=O)N2CC3CN(Cc4ccc(Cl)c(C5(O)CCCC5)c4)CC3C2)n1 (stereo not drawn) [Example 24, N-(1-(5-(4-Chloro-3-(1-hydroxycyclopentyl)benzyl)octahydropyrrolo[3,4-c]pyrrole-2-carbonyl)-1H-pyrazol-3-yl)acetamide] | – | – |
| > 75% | > 75% | 0 to 25% | – | – | 0 to 25% | CS(=O)(=O)Nc1ccn(C(=O)N2CCN(Cc3cc4cc(Cl)ccc4s3)CC2)n1 [Example 66, N-(1-(4-((5-Chlorobenzo[b]thiophen-2-yl)methyl)piperazine-1-carbonyl)-1H-pyrazol-3-yl)methanesulfonamide] | – | – |
| > 75% | > 75% | 0 to 25% | – | – | 0 to 25% | CS(=O)(=O)Nc1ccn(C(=O)N2CCC(Oc3ccc(Cl)c(C4CCCC4)c3)CC2)n1 [Example 21, N-(1-(4-(4-chloro-3-cyclopentylphenoxy)piperidine-1-carbonyl)-1H-pyrazol-3-yl)methanesulfonamide] | – | – |
| > 75% | > 75% | 0 to 25% | – | – | 0 to 25% | CS(=O)(=O)Nc1ccn(C(=O)N2CCN(Cc3cc4ccccc4[nH]3)CC2)n1 [Example 55, N-(1-(4-((1H-Indol-2-yl)methyl)piperazine-1-carbonyl)-1H-pyrazol-3-yl)methanesulfonamide] | – | – |
| 25 to 50% | 25 to 50% | 50 to 75% | – | – | > 75% | CS(=O)(=O)Nc1ccn(C(=O)N2CC3CN(Cc4ccc(Oc5ccc(Cl)cc5)cc4)CC3C2)n1 (stereo not drawn) [Example 40, N-(1-(5-(4-(4-Chlorophenoxy)benzyl)octahydropyrrolo[3,4-c]pyrrole-2-carbonyl)-1H-pyrazol-3-yl)methanesulfonamide] | – | – |
| > 75% | > 75% | > 75% | 0.1 to 1 µM | < 0.1 µM | > 75% | CC(=O)Nc1ccn(C(=O)N2CC3CN(Cc4cccc(Oc5ccccc5Cl)c4)CC3C2)n1 (stereo not drawn) [Example 18, N-(1-(5-(3-(2-chlorophenoxy)benzyl)octahydropyrrolo[3,4-c]pyrrole-2-carbonyl)-1H-pyrazol-3-yl)acetamide] | – | – |
